We go through ten molecules from patent publication US5532380A, “R,R,S,S-2-nitroimidazole derivatives” (Pola Chemical Industries, Inc., priority 1992, dated 1996).

The LD50 is the dose at which mortality reaches 50%. A higher LD50 goes with lower toxicity. What is called solubility is the dissolved amount per volume that the medium holds.

Values after ≈ are worked out from the molar mass of the structure shown. Read-outs that look alike come from different tables or passages of the source.

The nature of data set [1]: Acute toxicity test (LD50/14), i.v. or i.p. As to conditions: mouse, in vivo. An excerpt:
Test compounds, dissolved in physiological saline or a physiological saline solution containing 10% DMSO, were intravenously or intraperitoneally injected to ICR male mice, aged 5 weeks.

Data set [2] deals with breast carcinoma cell EMT6/KU. Nature of the data set: In vitro hypoxic cell sensitization effect (colony formation, gamma-ray). It is filed as cell-based, Balb/c mouse. As to conditions: 1 mM test compound, EMT6/KU hypoxic cells, ratio of radiation amounts without/with compound. The procedure:
The degree of the hypoxic cell radiosensitization effects of optical isomers of the present invention as compared with the racemate was studied by the in vitro assay.
Specifically, the radiosensitization effects were investigated using breast carcinoma cell EMT6/KU derived from Balb/c mouse. A hypoxic cell suspension was prepared from MEM suspension-containing EMT6/KU cells at a concentration 4×10^5 cells/ml by adding the test compound to a final concentration of 1 mM, and gently shaking it under a nitrogen gas stream containing 5% CO2 for one hour at room temperature. Gamma-ray was irradiated to the suspension and a radiation-survival rate curve was developed by the colony formation method. The sensitization rate was determined from this radiation-survival rate curve by dividing (i) the amount of radiation which decreases the survival rate of the hypoxic cells by 1% when no test compound was added by (ii) the amount of radiation which decreases the survival rate of the hypoxic cells by 1% when the test compound was added.

Data set [3] in a line: Dissolution test (solubility). It is filed as physicochemical. As to conditions: for solubilities compared with SR-RS racemate: water and physiological saline. The procedure: Solubilities of SS, RR, SR, and RS isomers and SR-RS racemate in water and physiological saline were determined.
In data set [4] the test system is hypoxic cell. As to conditions: cited from earlier work.
Data set [5] has as its system EMT6/KU-cancerated Balb/c mouse. Nature of the data set: In vivo-in vitro hypoxic cell sensitization effect (EMT6/KU tumour-bearing mouse, gamma-ray, colony forming method). As to conditions: 200 mg/kg; 20 Gy gamma-ray 30 minutes thereafter. The method, then: The degree of the hypoxic cell radiosensitization effects of optical isomers of the present invention in in vivo-in vitro system was investigated in the same manner using the racemate as a control. Specifically, the radiosensitization effects were investigated using EMT6/KU-cancerated Balb/c mouse. 200 mg/kg of each test compound was administered and 20 Gy gamma-ray was irradiated 30 minutes thereafter. Carcinoma was extracted and treated with trypsin to prepare a cell suspension. The survival rate was determined by the colony forming method. A physiological saline solution was administered to the control.

A short description of data set [6]: Octanol-phosphate partition coefficient. It is filed as physicochemical. As to conditions: for logD at 24 h: octanol/0.2 m phosphate buffer; for partition coefficient: average of 1.4 times and 0.7 times; for partition coefficient / partition coefficient at 0.7 times the solubility in octanol / partition coefficient at 1.4 times the solubility in octanol: 1440 min; for partition coefficient at 0.7 times the solubility in octanol / partition coefficient at 1.4 times the solubility in octanol: octanol/0.2 mol phosphate buffer pH 7.4, 20° C.; for partitioning toward the octanol layer: octanol-phosphate, pH 7.4. The procedure: The partition coefficient in the octanol-phosphate buffer solution system, which is indicative of the degree of orientation toward nerve tissues, was determined. […] To the weighed samples 10 ml of 0.2 mol phosphate buffer (pH 7.4), defined in the Pharmacopoeia of Japan, and 10 ml of octanol were added. The mixtures were shaken for 24 hours at 20° C. under light shielding. Octanol and phosphate layers were partitioned to determine the absorbance of each layer. […] The partition coefficients obtained were averaged to determine the partition coefficient of each sample.

Data set [7] has as its system male ICR mice. As to conditions: mouse, in vivo, iv. The method, then:
The acute toxicity was determined using groups of male ICR mice, aged 5 weeks, each group consisting of five mice. Test compounds were dissolved in physiological saline and administered by injection through caudal vein. The death-survival determination was made 14 days after the administration.

The mark [8] stands for this setting: intravenously or intraperitoneally, ICR male mice, 14 days.
Setting [9] is: physiological saline, read-out: Solubility in physiological saline.
Where [10] appears, read: water, read-out: Solubility in water.
The mark [11] stands for this setting: pH 7.4, average of 1.4 times and 0.7 times, pH 7.4, 20° C., read-out: partition coefficient (converted).
[12] abbreviates: pH 7.4, octanol/0.2 mol phosphate buffer pH 7.4, 20° C., 24 hours, 0.7 times, read-out: partition coefficient at 0.7 times the solubility in octanol (converted).
The mark [13] stands for this setting: pH 7.4, octanol/0.2 mol phosphate buffer pH 7.4, 20° C., 24 hours, 1.4 times, read-out: partition coefficient at 1.4 times the solubility in octanol (converted).

In data set [1] (setting [8]), `O=[N+]([O-])c1nccn1CO[C@@H](CO)[C@H](O)CO` [Compound (4)] displayed a 50% lethal dose (LD50) at 336 h of 5900 mg/kg.
As for `O=[N+]([O-])c1nccn1CO[C@H](CO)[C@@H](O)CO` (relative stereo) [SR-RS racemate, (1'RS,2'SR)-1-[(2',3'-dihydroxy-1' -hydroxymethyl)propoxy]methyl-2-nitroimidazole], in data set [2], the “Hypoxic cell sensitization rate” value was determined as 1.7. Besides, the solubility in data set [3] (setting [9]) and in data set [3] (setting [10]) was 40 mg/mL (≈ 162 mM) in each case. For the same molecule, in data set [4], the “hypoxic cell radiosensitization effect compared with misonidazole” value is “about the same degree of hypoxic cell radiosensitization effect as misonidazole”. Moreover, the “Hypoxic cell survival rate” value in data set [5] was found to be 0.08%. Also, the logD at 24 h in data set [6] (setting [11]) is -1.33; in data set [6] (setting [12]), -1.24; in data set [6] (setting [13]), -1.43.
Consider `O=[N+]([O-])c1nccn1CO[C@@H](CO)[C@H](O)CO` [SR isomer], for which the “solubilities compared with SR-RS racemate” value in data set [3] is listed as “remarkably larger than that of SR-RS racemate”.
For the molecule `O=[N+]([O-])c1nccn1CO[C@H](CO)[C@@H](O)CO` [RS isomer], the “solubilities compared with SR-RS racemate” value in data set [3] is reported as “remarkably larger than that of SR-RS racemate”.
As for `COCC(O)Cn1ccnc1[N+](=O)[O-]` (stereo not drawn) [Misonidazole, reference compound], the figures for the logD at 24 h in data set [6] (setting [11]), in data set [6] (setting [12]) and in data set [6] (setting [13]) were -0.409, -0.397 and -0.423, respectively.
With `O=[N+]([O-])c1nccn1COC(CO)C(O)CO` (single isomer, unassigned) [RS or SR isomer (rotation(-))], the “Hypoxic cell sensitization rate” value in data set [2] was 1.7. Besides, the “Solubility in physiological saline” value in data set [3] (physiological saline) is reported as 0.06 g/ml. Further, the “Hypoxic cell survival rate” value in data set [5] amounted to 0.08%. This molecule also yielded a partition coefficient in data set [6] (pH 7.4, 20° C.) of 0.053. For the same molecule, the “partition coefficient at 0.7 times the solubility in octanol” value in data set [6] (24 hours, 0.7 times) came out at 0.058. For the same molecule, the “partition coefficient at 1.4 times the solubility in octanol” value in data set [6] (24 hours, 1.4 times) is 0.048.
In the case of `O=[N+]([O-])c1nccn1CO[C@@H](CO)[C@@H](O)CO` [SS isomer, (1'S,2'S)-1-[(2', 3'-dihydroxy-1'-hydroxymethyl)propoxy]methyl-2-nitroimidazole], the “Hypoxic cell sensitization rate” value in data set [2] is 1.8. Besides, the “safety compared with other optically active isomers” value in data set [7] is “better safety than other optically active isomers”. Besides, the solubility in data set [3] (setting [9]) was 820 mg/mL (≈ 3320 mM); in data set [3] (setting [10]) it was 850 mg/mL (≈ 3440 mM). The “solubilities compared with SR-RS racemate” value in data set [3] is reported as “remarkably larger than that of SR-RS racemate”. The “Hypoxic cell survival rate” value in data set [5] was 0.07%. The “partitioning toward the octanol layer” value in data set [6] is “less partitioned toward the octanol layer”. The results for the logD at 24 h in data set [6] (setting [11]), in data set [6] (setting [12]) and in data set [6] (setting [13]) were -1.55, -1.51 and -1.59, respectively. The molecule also gave an LD50 at 336 h in data set [1] of 6000 mg/kg.
Regarding `O=[N+]([O-])c1nccn1COC(CO)C(O)CO` (single isomer, unassigned) [RS or SR isomer (rotation(+))], the “Hypoxic cell sensitization rate” value in data set [2] came out at 1.7. Further, the solubility in data set [3] (setting [9]) was 70 mg/mL (≈ 283 mM). Moreover, the “Hypoxic cell survival rate” value in data set [5] is 0.08%. Also, in data set [6] (pH 7.4, 20° C.), the partition coefficient stood at 0.056. Moreover, the “partition coefficient at 0.7 times the solubility in octanol” value in data set [6] (24 hours, 0.7 times) is given as 0.059. Moreover, the “partition coefficient at 1.4 times the solubility in octanol” value in data set [6] (24 hours, 1.4 times) came out at 0.053.
For the molecule `O=[N+]([O-])c1nccn1CO[C@H](CO)[C@@H](O)CO` [Compound (3)], the LD50 at 336 h in data set [1] (setting [8]) came to 5900 mg/kg.
In the case of `O=[N+]([O-])c1nccn1CO[C@H](CO)[C@H](O)CO` [RR isomer, (1'R,2'R)-1-[(2', 3'-dihydroxy-1'-hydroxymethyl)propoxy]methyl-2-nitroimidazole], the “Hypoxic cell sensitization rate” value in data set [2] is on record as 1.8. Also, the solubility amounted to 870 mg/mL (≈ 3520 mM) in data set [3] (setting [9]) and 740 mg/mL (≈ 2990 mM) in data set [3] (setting [10]). For the same molecule, in data set [3], the “solubilities compared with SR-RS racemate” value is “remarkably larger than that of SR-RS racemate”. For the same molecule, the “Hypoxic cell survival rate” value in data set [5] is recorded as 0.07%. In data set [6], the “partitioning toward the octanol layer” value is given as “less partitioned toward the octanol layer”. In addition, the results for the logD at 24 h in data set [6] (setting [11]), in data set [6] (setting [12]) and in data set [6] (setting [13]) were -1.6, -1.59 and -1.62, respectively. In data set [1], this molecule registered an LD50 at 336 h of 6000 mg/kg.
